Data: patent US20190136188A1, “4HPR AND ITS USE IN THE CULTURING OF HEMATOPOIETIC STEM CELLS” (UNIVERSITY HEALTH NETWORK, priority 2016, published 2019)

Tests used:
sorted HSC, MPP or GMP [1] = experiment: Cell cycle analysis with Ki67 and Hoescht by flow cytometry; assay type: cell-based, human; details: 2 uM 4HPR, day 2 or day 3
sorted HSC, MPP or GMP [2] = experiment: Colony forming assay (CFC) in methylcellulose; assay type: cell-based, human
Method: (A) Dose response of varying [4HPR] in CB at day 3 post-treatment showing 2 uM 4HPR gives the relative half maximal number of viable cells compared to control. All experiments following are at this 4HPR concentration unless otherwise indicated. […] (C) LC/MS was used to profile the ceramide (Cer), dihydroceramide (dhCer), sphingosine (sph), dihydrosphingosine (dhSph), S1P and dihydro-S1P (dhS1P) levels in lin− CB cells cultured for 8 days with control or 4HPR (n=2). […] (D) HSC, MPP, or GMP were sorted into methylcellulose for CFC assays in the presence of control or 4HPR and colonies were blindly scored following 10-11 days for (D) colonies/100 cells and ((E) colony distribution are shown (n=7). (F) Flow cytometry for erythroid (GlyA+) and monocytic (CD14+) markers in live cells from pooled CFC colonies were scored (n=6). (F) Relative number of colonies from CFC assays comparing the effect of 4HPR or ATRA (n=3) on sorted HSC, MPP or GMP. […]
(A) Representative flow cytometry analysis of the primitive hierarchy within the CD34+ fraction of day 8 cultured lin− CB cells after the indicated treatments for CD90 and CD45RA, n=4. B) The distribution of cultured CD34+CD90+CD45RA− (cHSC), CD34+CD90−CD45RA− (cMPP), and […] for the indicated conditions at day 8 of ex vivo culture following CD34 enrichment. Statistical significance assayed through unpaired t-test relative to vehicle control (Ctrl). The relative number of colonies resulting from (C) HSC or (D) MPP grown in methylcellulose CFC assays in the presence of vehicle control (−) or the indicated combination of 2 uM 4HPR, or 35 nM UM171 or 0.5 uM SR1 at 10 days. Statistical significance is calculated via unpaired t-test relative to ctrl (black) or to the presence of absence of 4HPR treatment for UM171 or SR1.
However, the functional consequence of 4HPR treatment on human cord blood primitive cells is unknown. A dose titration of 4HPR was performed on lineage-depleted CB (lin-CB) cells and 2 uM was calculated to give half maximal cell viability at 3 days post-treatment compared to vehicle control (ctrl), a concentration reported in cell lines to antagonize DEGS1 enzymatic function, and used for all subsequent experiments unless otherwise indicated (FIG. 1A). […] Next, we utilized the colony forming assay (CFC) for in vitro progenitor function to determine if 4HPR treatment alters functional output from isolated populations of CB HSPC. […] This is unsurprising as retinoic acid signaling is a potent differentiation signal in hematopoietic cells. Thus, 4HPR inhibition of sphingolipid homeostasis selectively enhances cloning efficiency in human HSC.
Given the CD34 compartment where functional HSC should reside following ex vivo expansion is critical to blood production, we asked if there were immunophenotypic alterations following 4HPR treatment. StemRegenin-1 (SR1) or UM171 are two molecules whose action on CB has been reported to expand CD34+ cells dramatically and lead to increase reconstitution in xenotransplantation (Fares, et al Science, 2014: Boitano, Science, 2010). We sought to ask if limiting CD34+ expansion with 4HPR treatment is synergistic with these known agonists of CB ex vivo expansion. Lin− CB were cultured with these 3 small molecules alone or in combination for 8 days and the CD34 compartment was isolated and analyzed by flow cytometry further with CD90 and CD45RA to look at immunophenotypic cultured HSC (cHSC), MPP (cMPP) and committed progenitors (cProg). These populations were sorted from lin-CB at […] following expansion and transplanted into NSG mice for 16 weeks to ascertain that cProg cells are committed progenitors, while cHSC and cMPP retain multipotency following culture (FIG. 8A, B). […]

DEGS1 = details: prolong exposure at micromolar concentrations in vitro; cited from earlier work

Q: For CC1=C(/C=C/C(C)=C/C=C/C(C)=C/C(=O)Nc2ccc(O)cc2)C(C)(C)CCC1 [4HPR, N-(4hydroxyphenyl)retinamide], which “cell cycle transit (Ki67 and Hoescht)” value (sorted HSC, MPP or GMP [1]) is on record?
A: no significant difference between ctrl and 4HPR

Q: And the “relative cloning efficiency from HSC” value (sorted HSC, MPP or GMP [2]; 2 uM 4HPR in combination with either UM171 or SR1, to levels similar to 4HPR alone)?
A: increased relative cloning efficiency from HSC

Q: And the “colony distribution (colony type)” value (sorted HSC, MPP or GMP [2]; HSC and MPP samples, 2 uM 4HPR)?
A: more likely to be granulocyte-macrophage (GM) colonies

Q: What about the “increase of colony output over control treatment” value (sorted HSC, MPP or GMP [2]; HSC, 2 uM 4HPR, colonies scored after 10-11 days) of the same compound?
A: 50%

Q: What about the “increase of colony output over control treatment” value (sorted HSC, MPP or GMP [2]; MPP or GMP, 2 uM 4HPR) of the same compound?
A: but not MPP or GMP

Q: And the “myeloid (CD14) and erythroid (GlyA) output of cells from CFC assays” value (sorted HSC, MPP or GMP [2]; flow cytometry of pooled CFC colonies, 2 uM 4HPR)?
A: enhances myeloid output at the expense of erythroid differentiation

Q: And the DEGS1 activity (DEGS1)?
A: irreversibly inhibits DEGS1 activity
